# Results taken from patent US20230338307A1, “PROPHYLACTIC AGENT, AMELIORATING AGENT, AND THERAPEUTIC AGENT FOR DRY EYE” (TSUBOTA LABORATORY, INC., priority 2020, published 2023).
# Test system: dry eye model
# Assay: Fluorescein staining score (corneal damage), dry eye model by systemic erlotinib (Example 3)
# Format: in vivo, mice
# Details: 0.003% (w/v) apocynin eye drop twice a day, one week after start, FIG. 6
# Description: After acclimating male C57BL6 mice (7 weeks old) to the experimental environment, those with almost uniform body weight values and no eye abnormalities were divided into the following 3 groups (n=4). • 7 weeks old/normal (non-dry eye group) • 7 weeks old/dry eye model+control (solvent eye drop) group • 7 weeks old/dry eye model+apocynin eye drop group The dry eye model was prepared by dissolving erlotinib at a concentration of 5 mg/ml in 0.5% methylcellulose solution and administering it by intraperitoneal injection at a concentration of 50 mg/kg/day daily from the start of the study. The solvent 0.5% methylcellulose solution was similarly administered to the normal non-administration group. After one week of administration of erlotinib, the control group received PBS alone, and the test group received a solution of 0.003% (w/v) apocynin suspended in PBS twice a day at both eyes with 3 μL each. One week after the start of instillation, 1 μL of 0.1% sodium fluorescein solution was instilled into each of both eyes under isoflurane anesthesia, and the BUT test was performed under a blue filter using a slit lamp (Kowa Co., Ltd., SL-17) (FIG. 5). In Example 3, one week after the start of apocynin instillation, photographs were taken under isoflurane anesthesia, and the degree of corneal damage was scored (FIG. 6).
structure (smiles),measurement,value
"COc1cc(C(C)=O)ccc1O [apocynin, 4-hydroxy-3-methoxyacetophenone]",corneal epithelial damage (fluorescein staining score),significantly improved
